Experimental data as given in patent publication EP0565593B1, “REDUCING PESTICIDAL INTERACTIONS IN CROPS” (priority 1990, dated 1992).
Several values for one entry are separate records, joined by “and”; a condition that tells them apart may be missing. Equal values may be shown once.

Experiments:
[1] = system: Velvetleaf (VELE); assay: whole plant or invertebrate; assay type: in vivo, Abutilon theophrasti; conditions: for inhibition at 140 g/ha: Abutilon theophrasti, iv, 312 h
[2] = system: Giant foxtail (GIFT); assay: whole plant or invertebrate; assay type: in vivo; conditions: for inhibition at 140 g/ha: Setaria faberi, iv, 312 h
[3] = system: grain sorghum (GRSO); assay: Multi-crop greenhouse test, soil-applied (Examples 65, 66; Tables 64, 65); assay type: in vivo; parameters: inhibition: dose or concentration left out as unconfirmed; conditions: Sorghum; for inhibition at 18 g/ha: Herb. No. 1 0.018 Kg/Ha alone; for inhibition at 70 g/ha: Herb. No. 1 0.07 Kg/Ha alone; for inhibition at 280 g/ha: Herb. No. 1 0.28 Kg/Ha alone
Procedure: (§1) Tests according to this invention in various crops indicate widespread application of the invention. In Examples 62-66 below are described tests with a variety of herbicides contacted with COUNTER® 15G in the presence and absence of MON-7400 (Antidote No. 12); MON-13900 (No. 1); MON-4660 (No. 16) and flurazole (No. 16). Those tests were conducted according to Procedures IV or V described above and illustrated further in other foregoing examples. Plants used in all tests were, for crops (as abbreviated in parentheses); cotton (COTT); soybean (SOBE); CORN, grain sorghum (GRSO); wheat (WHEA) and RICE, and the weeds giant foxtail (GIFT) and velvetleaf (VELE). The data in the tables below represent averages of two replications.
(§2) In this test the crops and weeds were planted 1.3 cm deep in 13.7 cm X 27.7 cm pans containing Dupo silt loam soil. The test safeners were applied in acetone solution and COUNTER 15G as dry granules to soil cover layers and incorporated by shaking in a bag. Treated cover layers were placed on seeded pans which were transferred to greenhouse benches and subirrigated. Herbicide was applied POE six (6) days after PPI initiation and observations of plant injury made ten (10) days later; results are shown in Table 61. The herbicide used in this example was BEACON (No. 8).
(§3) In another test in the several crops and weeds used in this test series, the herbicidal component was MON-12000 (No. 1); the other components were the same. the procedure used in this test was the same as that described in Example 62, modified to use a light overhead irrigation (about 0.32 cm/day) during days 4-7 of the test. Table 64 […]

[4] = system: RICE; assay: as above; assay type: in vivo; parameters: inhibition: dose or concentration left out as unconfirmed; conditions: Oryza sativa; for inhibition at 18 g/ha: Herb. No. 1 0.018 Kg/Ha alone; for inhibition at 70 g/ha: Herb. No. 1 0.07 Kg/Ha alone; for inhibition at 280 g/ha: Herb. No. 1 0.28 Kg/Ha alone
Procedure: as §1, §2, §3

[5] = Herb. No. 1 0.14 kg/Ha alone, PPI, 13 days after planting
[6] = Table 51, Herbicide No. 1 0.14 Kg/Ha, where applied Biocide No. 8 8.96 kg/Ha and antidote 4.48 Kg/Ha, all PPI, observed 13 days after treatment
[7] = Herbicide No. 1 0.0175 Kg/Ha PPI alone, Table 19
[8] = Herbicide No. 1 0.0175 Kg/Ha PPI alone, Table 20
[9] = Herbicide No. 1 0.0175 Kg/Ha PPI alone, Table 21
[10] = Herbicide No. 1 0.0175 Kg/Ha PPI alone, Table 22
[11] = Table 64, Herb. No. 1 0.018 Kg/Ha + Biocide No. 1 8.96 Kg/Ha
[12] = Table 64, Herb. No. 1 0.07 Kg/Ha + Biocide No. 1 8.96 Kg/Ha
[13] = Table 64, Herb. No. 1 0.28 Kg/Ha + Biocide No. 1 8.96 Kg/Ha
[14] = Table 65, Herb. No. 1 0.018 Kg/Ha + Biocide No. 1 8.96 Kg/Ha
[15] = Table 65, Herb. No. 1 0.07 Kg/Ha + Biocide No. 1 8.96 Kg/Ha
[16] = Table 65, Herb. No. 1 0.28 Kg/Ha + Biocide No. 1 8.96 Kg/Ha

COC(=O)c1c(Cl)nn(C)c1S(=O)(=O)NC(=O)Nc1nc(OC)cc(OC)n1 [Herbicide No. 1, N-[(4,6-dimethoxypyrimidin-2-yl)aminocarbonyl]-3-chloro-4-methoxycarbonyl-5-sulfonamide, reference compound]
inhibition at 140 g/ha [1, 5]: 95%
inhibition at 140 g/ha [1, 6]: 85%
inhibition at 140 g/ha ([1]; Table 52, Herbicide No. 1 0.14 Kg/Ha, where applied Biocide No. 5 8.96 kg/Ha and antidote 4.48 Kg/Ha, all PPI, observed 13 days after treatment): 85%
% Inhibition VELE [1, 7]: 85%
% Inhibition VELE [1, 8]: 80%
% Inhibition VELE [1, 9]: 80%
% Inhibition VELE [1, 10]: 85%
% Inhibition VELE ([1]; in vivo): 95% and 90% and 80%
% Inhibition GIFT [2, 7]: 15%
% Inhibition GIFT [2, 8]: 0%
% Inhibition GIFT [2, 9]: 0%
% Inhibition GIFT [2, 10]: 0%
inhibition at 140 g/ha [2, 5]: 30%
inhibition at 140 g/ha [2, 6]: 60%
% Inhibition GIFT ([2]; in vivo): 60% and 65% and 80%
inhibition [3, 11]: 0%
inhibition at 18 g/ha ([3]; Table 64): 0%
inhibition [3, 12]: 15%
inhibition at 70 g/ha ([3]; Table 64): 0%
inhibition [3, 13]: 15%
inhibition at 280 g/ha ([3]; Table 64): 20%
inhibition [3, 14]: 15%
inhibition at 18 g/ha ([3]; Table 65): 0%
inhibition [3, 15]: 20%
inhibition at 70 g/ha ([3]; Table 65): 40%
inhibition [3, 16]: 85%
inhibition at 280 g/ha ([3]; Table 65): 80%
inhibition [4, 11]: 0%
inhibition at 18 g/ha ([4]; Table 64): 0%
inhibition [4, 12]: 10%
inhibition at 70 g/ha ([4]; Table 64): 0%
inhibition [4, 13]: 25%
inhibition at 280 g/ha ([4]; Table 64): 40%
inhibition [4, 14]: 0%
inhibition at 18 g/ha ([4]; Table 65): 0%
inhibition [4, 15]: 25%
inhibition at 70 g/ha ([4]; Table 65): 40%
inhibition [4, 16]: 90%
inhibition at 280 g/ha ([4]; Table 65): 60%
